Measured values taken from patent publication US20060270634A1, “Acetal phosphate-derived LPA mimics, PPARgamma activators, and autotaxin inhibitors” (priority 2005, published 2006).
“Also recorded” adds a separate entry of the source. Like-named read-outs stand apart in the source and are kept apart here. One block for each compound: values may come before it.

Legend:
[1] = target: LPA2 (Homo sapiens, UniProt Q9HBW0); test: Ca2+ transients in RH7777 cells expressing LPA2 (agonist / inhibition of LPA response); details: for Emax: RH7777, read-out: LPA2 (Emax); for LPA2 effect in words: *transient
[2] = target: LPA1 (Homo sapiens, UniProt Q92633); test: Ca2+ transients in RH7777 cells expressing LPA1 (agonist / inhibition of LPA response); details: for Emax: RH7777, read-out: LPA1 (Emax); for LPA1 effect in words: Tables 2, 4, 6; for EC50: read-out: LPA1 EC50
[3] = target: T1, LPA3 (Homo sapiens, UniProt Q9UBY5); test: Ca2+ transients in RH7777 cells expressing LPA3 (agonist / inhibition of LPA response); details: for EC50: read-out: LPA3 EC50; for IC50: read-out: LPA3 IC50; for LPA3 effect in words: Tables 2, 4, 6
T1 sequence (Q9UBY5 1-353): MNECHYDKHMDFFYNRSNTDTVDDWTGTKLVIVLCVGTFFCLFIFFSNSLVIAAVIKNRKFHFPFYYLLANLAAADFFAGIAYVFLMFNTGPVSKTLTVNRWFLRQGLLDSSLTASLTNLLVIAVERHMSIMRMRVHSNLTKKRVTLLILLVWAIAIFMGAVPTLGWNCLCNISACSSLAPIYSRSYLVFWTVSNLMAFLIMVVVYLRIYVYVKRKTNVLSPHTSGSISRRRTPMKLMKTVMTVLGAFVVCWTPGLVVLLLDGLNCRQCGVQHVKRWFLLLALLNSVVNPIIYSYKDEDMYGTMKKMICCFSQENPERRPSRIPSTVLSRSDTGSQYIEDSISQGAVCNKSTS

[4] = read-out: LPA1 IC50, 200 nM LPA

Chain of LPA1 (Q92633 whole entry, species assumed): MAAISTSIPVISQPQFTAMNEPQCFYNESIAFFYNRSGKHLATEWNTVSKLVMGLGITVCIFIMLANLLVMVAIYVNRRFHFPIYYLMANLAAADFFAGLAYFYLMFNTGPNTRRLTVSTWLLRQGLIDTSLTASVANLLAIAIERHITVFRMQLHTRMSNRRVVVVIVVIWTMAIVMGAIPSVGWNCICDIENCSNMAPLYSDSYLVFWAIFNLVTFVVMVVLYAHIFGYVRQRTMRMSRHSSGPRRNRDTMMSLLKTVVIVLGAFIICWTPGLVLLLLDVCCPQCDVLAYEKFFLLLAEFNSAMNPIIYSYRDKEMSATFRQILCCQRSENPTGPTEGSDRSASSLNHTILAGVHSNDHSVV
Chain of LPA2 (Q9HBW0 whole entry, species assumed): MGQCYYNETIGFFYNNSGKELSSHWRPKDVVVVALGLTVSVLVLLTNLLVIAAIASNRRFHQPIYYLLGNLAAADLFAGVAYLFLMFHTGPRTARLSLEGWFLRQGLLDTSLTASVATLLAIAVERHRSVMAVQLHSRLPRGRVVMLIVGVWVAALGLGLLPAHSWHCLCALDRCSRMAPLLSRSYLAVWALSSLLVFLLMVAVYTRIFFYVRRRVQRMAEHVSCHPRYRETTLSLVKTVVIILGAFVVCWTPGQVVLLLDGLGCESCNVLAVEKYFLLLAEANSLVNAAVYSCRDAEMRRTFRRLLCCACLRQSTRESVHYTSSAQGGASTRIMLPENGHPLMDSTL

Compound: CCCCCCCC/C=C\CCCCCCC[C@@H]1OC[C@@H](COP(O)(O)=S)O1 [Analog 28]
IC50 [1]: > 30 µM
EC50 ([1]; LPA2 (nM) EC50, Table 1): 1710 nM

Ki [2]: 407 nM
IC50 ([2]; LPA1 IC50, Table 5): 692 nM
Compound: CCCCCCCC(=O)OCC(COP(=O)(O)O)OC(=O)CCCCCCC (centres unmarked) [Cpd 2, phosphatidic acid 8:0, reference compound]

LPA1 agonist/antagonist activity in words [2]: subtype selective antagonism
Ki ([2]; read-out: LPA1 (Ki), Table 5): 221 nM
IC50 ([2]; read-out: LPA1 IC50, Table 5): 433 nM
LPA2 agonist/antagonist activity in words [1]: no effect
LPA3 agonist/antagonist activity in words [3]: subtype selective antagonism
Compound: CCCCCCCC(=O)OC[C@@H](COP(=O)(O)O)OC(=O)CCCCCCC [Cpd 7a, (2S)-PA 8:0]

Compound: CCCCCCCC(=O)OC[C@@H](COP(O)(O)=S)OC(=O)CCCCCCC [Cpd 8a, thiophosphatidic acid 8:0]
LPA1 agonist/antagonist activity in words [2]: lacked LPA1/3 antagonism
LPA2 agonist/antagonist activity in words [1]: partial agonist
Emax [1]: 17%
EC50 ([1]; read-out: LPA2 EC50, Table 5): 7170 nM
LPA3 agonist/antagonist activity in words [3]: partial agonist
Emax ([3]; RH7777, read-out: LPA3 (Emax)): 30%
EC50 ([3]; Table 5): 115 nM

Compound: CCCCCCCC(=O)OC[C@H](COP(O)(O)=S)OC(=O)CCCCCCC [Cpd 8b, (2R)-TPA 8:0]
LPA1 agonist/antagonist activity in words [2]: more potent antagonist
Ki ([2]; read-out: LPA1 (Ki), Table 5): 360 nM
IC50 ([2]; read-out: LPA1 IC50, Table 5): 686 nM
LPA2 agonist/antagonist activity in words [1]: partial agonist
Emax [1]: 58%
EC50 ([1]; read-out: LPA2 EC50, Table 5): 6330 nM
selectivity for LPA3 over LPA1 [3]: 75 fold
IC50 ([3]; Table 5): 11 nM
Ki ([3]; read-out: LPA3 Ki): 5 nM

Compound: CCCCCCCCOC[C@@H](COP(=O)(O)O)OCCCCCCCC [Cpd 12a]
Ki ([2]; read-out: LPA1 (Ki), Table 5): 486 nM
IC50 [2, 4]: 1580 nM
IC50 ([2]; read-out: LPA1 IC50, Table 5): 1580 nM
LPA2 effect in words [1]: Weak inhibition(?) *transient
Ki ([3]; read-out: LPA3 (Ki), Table 5): 50 nM
IC50 ([3]; 200 nM LPA): 143 nM
IC50 ([3]; Table 5): 143 nM

Compound: CCCCCCCCOC[C@H](COP(=O)(O)O)OCCCCCCCC [Cpd 12b, (2R)-APA 8:0]
LPA1 agonist/antagonist activity in words [2]: agonists; also recorded: Enantiospecific activation
Emax [2]: 57%
LPA1 effect in words [2]: Partial agonist
EC50 [2]: 3260 nM
EC50 ([2]; Table 5, PA 8:0 analogs): 3260 nM
LPA2 effect in words [1]: Partial agonist
EC50 ([1]; LPA2 EC50, *transient): 2530 nM
LPA3 agonist/antagonist activity in words [3]: agonists; also recorded: Enantiospecific activation
Emax ([3]; RH7777, read-out: LPA3 (Emax)): 109%
LPA3 effect in words [3]: Full agonist
EC50 [3]: 164 nM
EC50 ([3]; Table 5): 164 nM

Compound: CCCCCCCCOC[C@@H](COP(O)(O)=S)OCCCCCCCC [Cpd 13a, dialkyl thiophosphatidic acid 8:0]
Ki ([2]; read-out: LPA1 (Ki), Table 5): 139 nM
IC50 [2, 4]: 328 nM
IC50 ([2]; read-out: LPA1 IC50, Table 5): 328 nM
LPA2 effect in words [1]: Weak stimulation *transient
Ki ([3]; read-out: LPA3 (Ki), Table 5): 67 nM
IC50 ([3]; 200 nM LPA): 184 nM
IC50 ([3]; Table 5): 184 nM

Compound: CCCCCCCCOC[C@H](COP(O)(O)=S)OCCCCCCCC [Cpd 13b, 2(R)-ATPA 8:0]
LPA1 agonist/antagonist activity in words [2]: agonists; also recorded: Enantiospecific activation
Emax [2]: 30%
LPA1 effect in words [2]: Partial agonist
EC50 [2]: 695 nM
EC50 ([2]; Table 5, PA 8:0 analogs): 695 nM
LPA2 agonist/antagonist activity in words [1]: weak and partial agonist
LPA2 effect in words [1]: Partial agonist
EC50 ([1]; LPA2 EC50, *transient): 1020 nM
Emax [1]: 27%
LPA3 agonist/antagonist activity in words [3]: agonists; also recorded: potent LPA3 receptor subtype-selective agonist; also recorded: full agonist
selectivity for LPA3 over LPA1 [3]: ~230 fold
selectivity for LPA3 over LPA2 [3]: ~1900 fold
Emax ([3]; RH7777, read-out: LPA3 (Emax)): 109%
Emax ([3]; RH7777, read-out: LPA3 Emax): 109%
LPA3 effect in words [3]: Full agonist
EC50 [3]: 3 nM
EC50 ([3]; Table 5): 3 nM
EC50 ([3]; text): 3 nM

Compound: CCCCCCCCNC(=O)[C@H](COP(O)(O)=S)NC(=O)CCCCCCC [Cpd 20a]
Ki ([2]; read-out: LPA1 (Ki), Table 5): 152 nM
IC50 ([2]; read-out: LPA1 IC50, Table 5): 476 nM
Ki ([3]; read-out: LPA3 (Ki), Table 5): 117 nM
IC50 ([3]; Table 5): 251 nM

Compound: CCCCCCCCNC(=O)[C@@H](COP(O)(O)=S)NC(=O)CCCCCCC [Cpd 20b]
Ki ([2]; read-out: LPA1 (Ki), Table 5): 2850 nM
IC50 ([2]; read-out: LPA1 IC50, Table 5): 7390 nM
Ki ([3]; read-out: LPA3 (Ki), Table 5): 118 nM
IC50 ([3]; Table 5): 302 nM

Compound: CCCCCCCCc1ccc(CCCCCCC2OCC(COP(=O)(O)O)O2)cc1 (centres unmarked) [ID 14]
IC50 [2, 4]: 4660 nM
LPA3 effect in words [3]: Partial agonist

Compound: CCCCCCCCc1ccc(CCCCCCC2OCC(COP(O)(O)=S)O2)cc1 (centres unmarked) [ID 15]
LPA1 effect in words [2]: Weak antagonist

LPA1 agonist/antagonist activity in words [2]: agonist of LPA1-3
LPA2 agonist/antagonist activity in words [1]: agonist of LPA1-3
LPA3 agonist/antagonist activity in words [3]: agonist of LPA1-3
Compound: CCCCCCCC/C=C\CCCCCCCC(=O)OC[C@@H](O)COP(=O)(O)O [Oleoyl-LPA, reference compound]
